Results as given in patent publication US6977262B2, “Dihydropyrazolopyridine compounds and pharmaceutical use thereof” (Mitsubishi Pharma Corporation, priority 2001, dated 2005).

Row | melting point | SMILES
1 | 115 °C | COC(CC1=C(C#N)C(c2cccc3nonc23)c2c[nH]nc2N1)OC (stereo not drawn) [Example 329, 4-(2,1,3-Benzoxadiazol-4-yl)-5-cyano-6-(2,2-dimethoxyethyl)-4,7-dihydro-2H-pyrazolo[3,4-b]pyridine]
2 | 180 °C | CCCC1=C(C#N)C(c2ccccc2Cl)c2c(n[nH]c2CC(OC)OC)N1 (stereo not drawn) [Example 330, 4-(2-Chlorophenyl)-5-cyano-4,7-dihydro-3-(2,2-dimethoxyethyl)-6-propyl-2H-pyrazolo[3,4-b]pyridine]
3 | 239 °C | CCCC1=C(C#N)C(c2cccc3nocc23)c2c[nH]nc2N1 (stereo not drawn) [Example 331, 4-(2,1-Benzoisoxazol-4-yl)-5-cyano-4,7-dihydro-6-propyl-2H-pyrazolo[3,4-b]pyridine]
4 | 245 °C | CC(C)C1=C(C#N)C(c2cccc3nocc23)c2c[nH]nc2N1 (stereo not drawn) [Example 332, 4-(2,1-Benzoisoxazol-4-yl)-5-cyano-4,7-dihydro-6-isopropyl-2H-pyrazolo[3,4-b]pyridine]
5 | 248 °C | N#CC1=C(C2CC2)Nc2n[nH]cc2C1c1cccc2nocc12 (stereo not drawn) [Example 333, 4-(2,1-Benzoisoxazol-4-yl)-5-cyano-6-cyclopropyl-4,7-dihydro-2H-pyrazolo[3,4-b]pyridine]
6 | 238 °C | N#CC1=C(c2c[nH]c3ccccc23)Nc2n[nH]cc2C1c1cccc2nonc12 (stereo not drawn) [Example 335, 4-(2,1,3-Benzoxadiazol-4-yl)-5-cyano-4,7-dihydro-6-(indol-3-yl)-2H-pyrazolo[3,4-b]pyridine]
7 | 212 °C | CCCC1=C(C#N)C(c2ccccc2Cl)c2c(n[nH]c2C(OC)OC)N1 (stereo not drawn) [Example 336, 4-(2-Chlorophenyl)-5-cyano-4,7-dihydro-3-dimethoxymethyl-6-propyl-2H-pyrazolo[3,4-b]pyridine]
8 | 224 °C | CCCC1=C(C#N)C(c2ccncc2)c2c[nH]nc2N1 (stereo not drawn) [Example 337, 5-Cyano-4,7-dihydro-6-propyl-4-(pyridin-4-yl)-2H-pyrazolo[3,4-b]pyridine]
9 | 250 °C | CCCC1=C(C#N)C(c2cccc(C)c2[N+](=O)[O-])c2c[nH]nc2N1 (stereo not drawn) [Example 338, 5-Cyano-4,7-dihydro-4-(3-methyl-2-nitrophenyl)-6-propyl-2H-pyrazolo[3,4-b]pyridine]
10 | 261 °C | Cc1cccc(C2C(C#N)=C(C(C)C)Nc3n[nH]cc32)c1[N+](=O)[O-] (stereo not drawn) [Example 339, 5-Cyano-4,7-dihydro-4-(3-methyl-2-nitrophenyl)-6-isopropyl-2H-pyrazolo[3,4-b]pyridine]
11 | 265 °C | Cc1cccc(C2C(C#N)=C(C3CC3)Nc3n[nH]cc32)c1[N+](=O)[O-] (stereo not drawn) [Example 340, 5-Cyano-6-cyclopropyl-4,7-dihydro-4-(3-methyl-2-nitrophenyl)-2H-pyrazolo[3,4-b]pyridine]
12 | 170 to 171 °C | CCCC1=C(C#N)C(c2ccccc2Cl)c2c[nH]nc2N1C (stereo not drawn) [Example 346, 4-(2-Chlorophenyl)-5-cyano-7-methyl-6-propyl-4,7-dihydro-2H-pyrazolo[3,4-b]pyridine]
13 | 218 to 220 °C | CCCC1=C(C#N)C(c2cccc(C#N)c2Br)c2c[nH]nc2N1C (stereo not drawn) [Example 348, 4-(2-Bromo-3-cyanophenyl)-5-cyano-7-methyl-6-propyl-4,7-dihydro-2H-pyrazolo[3,4-b]pyridine]

Row | SMILES | melting point
14 | CCCC1=C(C#N)C(c2ccccc2Cl)c2c(OC(=O)OC(C)(C)C)n[nH]c2N1 (stereo not drawn) [Example 328, 3-t-Butoxycarbonyloxy-4-(2-chlorophenyl)-5-cyano-4,7-dihydro-6-propyl-1 H-pyrazolo[3,4-b]pyridine] | 182 °C
15 | CC(C)(C)OC(=O)n1cc(C2=C(C#N)C(c3cccc4nonc34)c3c[nH]nc3N2)c2ccccc21 (stereo not drawn) [Example 334, 4-(2,1,3-Benzoxadiazol-4-yl)-5-cyano-6-(1-t-butoxycarbonylindol-3-yl)-4,7-dihydro-2H-pyrazolo[3,4-b]pyridine] | 202 °C
